The values that follow are results of earlier work, collected in patent US12268679B1 (priority 2021, dated 2025).

The target in series [1] is human delta receptor (Homo sapiens, UniProt P41143). Particulars: Ferrari et al. 2017.
The conditions of series [2]: animal studies, systemic administration, Hirao et al. 2008.

human delta receptor, sequence (P41143 whole entry): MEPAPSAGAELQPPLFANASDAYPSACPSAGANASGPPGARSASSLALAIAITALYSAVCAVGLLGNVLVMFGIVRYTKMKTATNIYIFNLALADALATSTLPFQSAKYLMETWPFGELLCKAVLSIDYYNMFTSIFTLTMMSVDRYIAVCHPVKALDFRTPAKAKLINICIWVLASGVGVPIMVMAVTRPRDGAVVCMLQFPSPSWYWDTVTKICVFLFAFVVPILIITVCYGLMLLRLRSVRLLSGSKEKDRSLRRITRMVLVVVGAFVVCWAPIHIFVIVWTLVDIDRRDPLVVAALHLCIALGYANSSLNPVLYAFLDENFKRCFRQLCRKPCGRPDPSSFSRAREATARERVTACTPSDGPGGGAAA

On to `CC1(N2CCC(n3c([C@@H]4CCCNC4)nc4ccccc43)CC2)CCCCCCC1` [MCOPPB, 1-[1-(1-methylcyclooctyl)-4-piperidinyl]-2-[(3R)-3-piperidinyl]-1H-benzimidazole], for which, in series [1], the “activation of human delta receptor” value was “only a small amount”. For the same molecule, in series [2], the “inhibition of memory or motor function” value was “no inhibition of memory or motor function”. Also, the sedative side effects entry in series [2] (appear only at much higher doses than the effective anxiolytic dose range) is “only slight sedative side effects”.
